Data on 48 compounds can be found in patent US20250223276A1, “Substituted Pyrrolidinyl And Piperidinyl Compounds And Related Methods Of Treatment” (Alkermes, Inc., priority 2022, published 2025).

The target in this assay is T1, human orexin-2 receptor (OX2R) (Homo sapiens, UniProt O43614).
T1 construct: expressed in transfected cells
T1 sequence (O43614 1-444): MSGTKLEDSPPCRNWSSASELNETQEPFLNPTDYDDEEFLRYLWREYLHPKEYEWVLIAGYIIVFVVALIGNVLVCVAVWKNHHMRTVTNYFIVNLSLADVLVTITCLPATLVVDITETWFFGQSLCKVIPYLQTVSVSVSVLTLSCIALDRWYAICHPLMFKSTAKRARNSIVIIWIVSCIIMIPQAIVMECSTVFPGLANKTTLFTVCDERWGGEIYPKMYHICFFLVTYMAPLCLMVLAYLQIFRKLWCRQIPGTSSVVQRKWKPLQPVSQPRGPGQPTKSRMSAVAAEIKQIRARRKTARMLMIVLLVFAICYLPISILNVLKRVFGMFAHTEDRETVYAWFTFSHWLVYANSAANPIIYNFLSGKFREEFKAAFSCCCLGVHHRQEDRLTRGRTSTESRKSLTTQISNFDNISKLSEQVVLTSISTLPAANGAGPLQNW
As to the kind of experiment: Human OX2R IP1 assay. To be noted: T-Rex CHO cells stably overexpressing human OX2R; IP1 (inositol monophosphate) accumulation, HTRF; 1 hr at 37 degrees C. The format is cell-based. The protocol: T-Rex CHO cells stably overexpressing the human orexin-2 receptor (OX2R) are induced overnight with 1 μg/mL of doxycycline in a T225 flask. 24 hours post induction, cells are lifted with accutase and plated into a 384-well proxy plate at 30,000 cells/well. Cells are then treated with different test compounds in 1× stimulation buffer containing 10 mM Hepes, 1 mM CaCl2), 0.5 mM MgCl2, 4.2 mM KCl, 146 mM NaCl, 5.5 mM glucose, and 50 mM LiCl, pH 7.4, for 1 hr at 37 degrees C. Following incubation, the reaction is terminated by the addition of detection mix, which is composed of IP1-d2 and anti-IP1-cryptate diluted in lysis buffer as well as 1× stimulation buffer. The plates are allowed to incubate for 1 hour at room temperature and are then read in the En Vision® multimode plate reader, measuring inositol phosphate levels.
Cisbio IP1 is a cell-based functional assay quantifying the accumulation of inositol monophosphate (IP), a metabolite released as a result of orexin 2 receptor activation through the phospholipase C-Gq signaling pathway. This is a competitive immunoassay in which the IP1 produced by the cells upon receptor activation competes with the IP1 analog coupled to the d2 fluorophore (acceptor) for binding to an anti-IP1 monoclonal antibody labeled with Eu cryptate (donor). The measured HTRF-FRET based signal is inversely proportional to the IP1 concentration produced.
The EC50 values reported in Table 2 were obtained according to the human OX2R IP1 assay described above. Data are the mean EC50 values±S.E.M.
For `CN(C1CC1)S(=O)(=O)N[C@H]1CCN(c2cccnn2)C[C@H]1CO[C@H]1CC[C@@H](c2cccc(F)c2)CC1` [Compound 9], the EC50 lay in the range of 100 to 1000 nM.
For the compound `CC(C)OC(=O)N1CC[C@H](NS(=O)(=O)N(C)C)[C@H](CO[C@H]2CC[C@@H](c3cccc(F)c3)CC2)C1` [Compound 50], the EC50 was in the range of 100 to 1000 nM.
Consider `CN(C)S(=O)(=O)N[C@H]1CCN(C(=O)c2cnco2)C[C@H]1CO[C@H]1CC[C@@H](c2cccc(F)c2)CC1` [Compound 44], for which the 50% effective concentration (EC50) is under 100 nM.
The compound `O=S(=O)(N[C@H]1CCN(c2cccnn2)C[C@H]1CO[C@H]1CC[C@@H](c2cccc(F)c2)CC1)N1CC(C(F)F)C1` [Compound 25] showed an EC50 of over 1000 nM.
For the compound `O=S(=O)(N[C@H]1CCN(c2cccnn2)C[C@H]1CO[C@H]1CC[C@@H](c2cccc(F)c2)CC1)N1CCC(F)(F)C1` [Compound 29], the EC50 is over 1000 nM.
As for `CN(C)S(=O)(=O)N[C@H]1CCN(C(=O)c2cncn2C)C[C@H]1CO[C@H]1CC[C@@H](c2cccc(F)c2)CC1` [Compound 46], the figure is 100 to 1000 nM.
For the compound `O=S(=O)(N[C@H]1CCN(c2cccnn2)C[C@H]1CO[C@H]1CC[C@@H](c2cccc(F)c2)CC1)N1CCC1` [Compound 8], the EC50 was in the range of 100 to 1000 nM.
With `CN(C)S(=O)(=O)N[C@H]1CCN(C(=O)N2CC(F)(F)C2)C[C@H]1CO[C@H]1CC[C@@H](c2cccc(F)c2)CC1` [Compound 62], the 50% effective concentration (EC50) is under 100 nM.
On to `O=C(NC1CCN(c2cccnn2)CC1CO[C@H]1CC[C@@H](c2cccc(F)c2)CC1)C(F)(F)F` (stereo partly drawn) [Compound 67], for which the EC50 is over 1000 nM.
In turn, `CN(C)S(=O)(=O)N[C@H]1CCN(C(=O)N2CCC(F)(F)C2)C[C@H]1CO[C@H]1CC[C@@H](c2cccc(F)c2)CC1` [Compound 61] had an EC50 of under 100 nM.
In the case of `CN(C)C1CN(S(=O)(=O)N[C@H]2CCN(c3cccnn3)C[C@H]2CO[C@H]2CC[C@@H](c3cccc(F)c3)CC2)C1` [Compound 30], the concentration giving a half-maximal response (EC50) is over 1000 nM.
As to `O=S(=O)(N[C@H]1CCN(c2cccnn2)C[C@H]1CO[C@H]1CC[C@@H](c2cccc(F)c2)CC1)C(F)F` [Compound 11], the EC50 was under 100 nM.
`O=S(=O)(N[C@H]1CCN(c2cccnn2)C[C@H]1CO[C@H]1CC[C@@H](c2cccc(F)c2)CC1)N1CCCC1` [Compound 26] showed an EC50 of over 1000 nM.
For `CN1CCCC1C(=O)N1CC[C@H](NS(=O)(=O)N(C)C)[C@H](CO[C@H]2CC[C@@H](c3cccc(F)c3)CC2)C1` (stereo partly drawn) [Compound 51], the EC50 was over 1000 nM.
With `CN(C)S(=O)(=O)N[C@H]1CCN(C(=O)OC2CC2)C[C@H]1CO[C@H]1CC[C@@H](c2cccc(F)c2)CC1` [Compound 60], the EC50 is over 1000 nM.
With `CC(C)S(=O)(=O)N[C@H]1CCN(c2cccnn2)C[C@H]1CO[C@H]1CC[C@@H](c2cccc(F)c2)CC1` [Compound 21], the half-maximal effective concentration (EC50) was under 100 nM.
In the case of `O=S(=O)(N[C@H]1CCN(c2cccnn2)C[C@H]1CO[C@H]1CC[C@@H](c2cccc(F)c2)CC1)N1CC(C(F)(F)F)C1` [Compound 22], the EC50 is over 1000 nM.
`O=S(=O)(N[C@H]1CCN(c2cccnn2)C[C@H]1CO[C@H]1CC[C@@H](c2cccc(F)c2)CC1)N1CC(Cl)C1` [Compound 31] yielded a 50% effective concentration (EC50) of over 1000 nM.
As for `CN(C)S(=O)(=O)N[C@H]1CCN(C(=O)c2cncs2)C[C@H]1CO[C@H]1CC[C@@H](c2cccc(F)c2)CC1` [Compound 45], the figure is under 100 nM.
Compound `CN(C)S(=O)(=O)N[C@H]1CCN(C(=O)N2CCOCC2)C[C@H]1CO[C@H]1CC[C@@H](c2cccc(F)c2)CC1` [Compound 55] registered a half-maximal effective concentration (EC50) of under 100 nM.
For the compound `CCS(=O)(=O)N[C@H]1CCN(c2cccnn2)C[C@H]1CO[C@H]1CC[C@@H](c2cccc(F)c2)CC1` [Compound 19], the EC50 is under 100 nM.
`CN1CCN(S(=O)(=O)N[C@H]2CCN(c3cccnn3)C[C@H]2CO[C@H]2CC[C@@H](c3cccc(F)c3)CC2)CC1` [Compound 24] displayed an EC50 of over 1000 nM.
Compound `CN(C)S(=O)(=O)N[C@H]1CCN(C(=O)C2(F)CC2)C[C@H]1CO[C@H]1CC[C@@H](c2cccc(F)c2)CC1` [Compound 47] displayed a 50% effective concentration (EC50) of under 100 nM.
`CN1CC2(C1)CN(S(=O)(=O)N[C@H]1CCN(c3cccnn3)C[C@H]1CO[C@H]1CC[C@@H](c3cccc(F)c3)CC1)C2` [Compound 27] gave an EC50 of over 1000 nM.
Compound `CN(C)S(=O)(=O)N[C@H]1CCN(C(=O)[C@H]2C[C@@H](F)C2)C[C@H]1CO[C@H]1CC[C@@H](c2cccc(F)c2)CC1` [Compound 53] showed a concentration giving a half-maximal response (EC50) of under 100 nM.
As for `CNS(=O)(=O)N[C@H]1CCN(c2cccnn2)C[C@H]1CO[C@H]1CC[C@@H](c2cccc(F)c2)CC1` [Compound 3], the concentration for a half-maximal effect (EC50) is under 100 nM.
Then `O=S(=O)(N[C@H]1CCN(c2cccnn2)C[C@H]1CO[C@H]1CC[C@@H](c2cccc(F)c2)CC1)C1CC1` [Compound 10], with under 100 nM; and `CC(C)N(C)[C@@H]1CCN(S(=O)(=O)N[C@H]2CCN(c3cccnn3)C[C@H]2CO[C@H]2CC[C@@H](c3cccc(F)c3)CC2)C1` [Compound 57], with over 1000 nM.
As to `O=S(=O)(N[C@H]1CCN(c2cccnn2)C[C@H]1CO[C@H]1CC[C@@H](c2cccc(F)c2)CC1)N1CC(F)C1` [Compound 18], the EC50 fell in the range of 100 to 1000 nM.
Take `CN(C)S(=O)(=O)N[C@H]1CCN(C(=O)OCC2(F)CC2)C[C@H]1CO[C@H]1CC[C@@H](c2cccc(F)c2)CC1` [Compound 58]: the 50% effective concentration (EC50) is over 1000 nM.
As for `CN(C)S(=O)(=O)N[C@H]1CCN(C(=O)OCC(F)F)C[C@H]1CO[C@H]1CC[C@@H](c2cccc(F)c2)CC1` [Compound 48], the EC50 is under 100 nM.
As for `O=S(=O)(NC1CC1)N[C@H]1CCN(c2cccnn2)C[C@H]1CO[C@H]1CC[C@@H](c2cccc(F)c2)CC1` [Compound 17], the figure is 100 to 1000 nM.
Then `C[C@@H](OC(=O)N1CC[C@H](NS(=O)(=O)N(C)C)[C@H](CO[C@H]2CC[C@@H](c3cccc(F)c3)CC2)C1)C(F)F` [Compound 65], with 100 to 1000 nM; and `O=S(=O)(N[C@H]1CCN(c2cccnn2)C[C@H]1CO[C@H]1CC[C@@H](c2cccc(F)c2)CC1)N1CC(CF)C1` [Compound 28], with over 1000 nM.
Then `CN1CC(NS(=O)(=O)N[C@H]2CCN(c3cccnn3)C[C@H]2CO[C@H]2CC[C@@H](c3cccc(F)c3)CC2)C1` [Compound 33], with over 1000 nM; and `O=S(=O)(N[C@H]1CCN(c2cccnn2)C[C@H]1CO[C@H]1CC[C@@H](c2cccc(F)c2)CC1)N1CCOCC1` [Compound 15], with over 1000 nM.
`CN(C)S(=O)(=O)N[C@H]1CCN(C(=O)[C@H]2C[C@H](F)C2)C[C@H]1CO[C@H]1CC[C@@H](c2cccc(F)c2)CC1` [Compound 54]: the half-maximal effective concentration (EC50) is under 100 nM.
Turning to `CN(C)S(=O)(=O)N[C@H]1CCN(c2cccnn2)C[C@H]1CO[C@H]1CC[C@@H](c2cccc(F)c2)CC1` [Compound 2], the EC50 was under 100 nM.
Then `CN(C)S(=O)(=O)N[C@H]1CCN(C(=O)c2ccnn2C)C[C@H]1CO[C@H]1CC[C@@H](c2cccc(F)c2)CC1` [Compound 49], with over 1000 nM; and `CC1CN(S(=O)(=O)N[C@H]2CCN(c3cccnn3)C[C@H]2CO[C@H]2CC[C@@H](c3cccc(F)c3)CC2)C1` [Compound 23], with over 1000 nM; and `O=S(=O)(N[C@H]1CCN(c2cccnn2)C[C@H]1CO[C@H]1CC[C@@H](c2cccc(F)c2)CC1)C1CCC1` [Compound 20], with over 1000 nM.
As for `CN(C)S(=O)(=O)N[C@H]1CCN(C(=O)[C@@H]2CCOC2)C[C@H]1CO[C@H]1CC[C@@H](c2cccc(F)c2)CC1` [Compound 5], the figure is under 100 nM.
Then `CS(=O)(=O)N[C@H]1CCN(C(=O)C2(F)CCC2)C[C@H]1CO[C@H]1CC[C@@H](c2cccc(F)c2)CC1` [Compound 6], with under 100 nM.
`O=S(=O)(N[C@H]1CCN(c2cccnn2)C[C@H]1CO[C@H]1CC[C@@H](c2cccc(F)c2)CC1)N1CC2(COC2)C1` [Compound 34] had a 50% effective concentration (EC50) of over 1000 nM.
For `CS(=O)(=O)N[C@H]1CCN(C(=O)[C@H]2CCOC2)C[C@H]1CO[C@H]1CC[C@@H](c2cccc(F)c2)CC1` [Compound 7], the EC50 was under 100 nM.
Consider `CN(C)S(=O)(=O)N[C@H]1CCN(C(=O)C2CNC(=O)C2)C[C@H]1CO[C@H]1CC[C@@H](c2cccc(F)c2)CC1` (stereo partly drawn) [Compound 52], for which the EC50 is over 1000 nM.
As for `CN1CC(OC(=O)N2CC[C@H](NS(=O)(=O)N(C)C)[C@H](CO[C@H]3CC[C@@H](c4cccc(F)c4)CC3)C2)C1` [Compound 59], the figure is over 1000 nM; as for `CN(C)S(=O)(=O)N[C@H]1CCN(C(=O)C2(F)CCC2)C[C@H]1CO[C@H]1CC[C@@H](c2cccc(F)c2)CC1` [Compound 4], under 100 nM.
